In US4292317A, “1,4-Dihydro-quinoline-3-carboxylic acid derivatives, process for their preparation and compositions containing them” (Laboratorie Roger Bellon, priority 1977, dated 1981):
In brackets after ≈: the same amount, converted by molar mass. Where two headings read alike, the source gives them in different places.

Assays:
[1] = in vivo; conditions: mouse, mice
[2] = test system: Esch. coli 54.127 O.M.S.; assay: M.I.C. in vitro, nutrient agar dilution; type: cell-based; conditions: Escherichia coli, 18 h
Method in brief: (§1)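 Reported value is the lowest concentration that inhibited a culture after 18 hours at 37° C. Plates held compound in a geometric (×2) range of 0.05 to 100 μg/cm^3 in agar of pH 6.8, spotted with 10^-3 diluted 18 hour broth cultures.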

[3] = test system: Ps. aeruginosa 72.345; assay: M.I.C. in vitro, nutrient agar dilution; type: cell-based
Method in brief: as §1

[4] = test system: B. subtilis; assay: M.I.C. in vitro, nutrient agar dilution; type: cell-based; conditions: Bacillus subtilis, 18 h
Method in brief: as §1

[5] = test system: Serratia; assay: M.I.C. in vitro, nutrient agar dilution; type: cell-based; conditions: 18 h
Method in brief: as §1

[6] = test system: Pr. mirabilis Nig; assay: M.I.C. in vitro, nutrient agar dilution; type: cell-based; conditions: Proteus mirabilis, 18 h
Method in brief: as §1

[7] = test system: Ps. aeruginosa A.22; assay: M.I.C. in vitro, nutrient agar dilution; type: cell-based; conditions: Pseudomonas aeruginosa
Method in brief: as §1

[8] = test system: Esch. coli 95 I.S.M.; assay: M.I.C. in vitro, nutrient agar dilution; type: cell-based; conditions: Escherichia coli, 18 h
Method in brief: as §1

[9] = test system: Staph. 209 P; assay: M.I.C. in vitro, nutrient agar dilution; type: cell-based; conditions: 18 h
Method in brief: as §1

[10] = test system: S. enteritidis Danysz; assay: M.I.C. in vitro, nutrient agar dilution; type: cell-based; conditions: Salmonella enterica, 18 h
Method in brief: as §1

[11] = test system: Arizona 6.211; assay: M.I.C. in vitro, nutrient agar dilution; type: cell-based; conditions: 18 h
Method in brief: as §1

[12] = test system: Strepto A 561; assay: M.I.C. in vitro, nutrient agar dilution; type: cell-based; conditions: 18 h; Table III; Strepto A 561
Method in brief: as §1

[13] = test system: Esch. coli 111 B4; assay: M.I.C. in vitro, nutrient agar dilution; type: cell-based; conditions: Escherichia coli, 18 h; Table III; Esch. coli 111 B4
Method in brief: (§2)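 Inhibition is scored visually as the lowest inhibitory concentration. Dishes contain compound serially halved from 100 to 0.05 μg/cm^3 in pH 6.8 medium, receive a multiple-inoculator spot of 10^-3 diluted 18 h broth culture, and incubate at 37° C. for 18 hours.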

[14] = test system: Pr. morganii A.236; assay: M.I.C. in vitro, nutrient agar dilution; type: cell-based; conditions: Morganella morganii
Method in brief: as §1

[15] = test system: Pr. vulgaris 12-53; assay: M.I.C. in vitro, nutrient agar dilution; type: cell-based; conditions: Proteus vulgaris, 1253, 18 h
Method in brief: as §1

[16] = test system: Sh. sonnei I.P.S.; assay: M.I.C. in vitro, nutrient agar dilution; type: cell-based; conditions: Shigella sonnei, 18 h; Table III; Sh. sonnei I.P.S.; read-out: M.I.C.
Method in brief: as §2

[17] = test system: Staph. 9.144; assay: M.I.C. in vitro, nutrient agar dilution; type: cell-based; conditions: 18 h
Method in brief: as §1

[18] = test system: Bord. bronchis. 4.617; assay: M.I.C. in vitro, nutrient agar dilution; type: cell-based; conditions: 18 h
Method in brief: as §1

[19] = test system: S. oranienburg 1066; assay: M.I.C. in vitro, nutrient agar dilution; type: cell-based
Method in brief: as §1

[20] = test system: Providentia 0223; assay: M.I.C. in vitro, nutrient agar dilution; type: cell-based; conditions: 18 h
Method in brief: as §1

[21] = test system: Klebs. pneum. 10.031; assay: M.I.C. in vitro, nutrient agar dilution; type: cell-based; conditions: 18 h
Method in brief: as §1

[22] = test system: Strepto D.M. 19; assay: M.I.C. in vitro, nutrient agar dilution; type: cell-based; conditions: 18 h
Method in brief: as §1

[23] = test system: Staph. aureus 50,774; assay: Systemic infection in mice; type: in vivo; conditions: Staphylococcus aureus, po, 336 h
Method: (§3) The activity of the compounds according to the invention against systemic infections in mice, caused by Staphylococcus 50,774, Streptococcus pyogenes A 65, Pseudomonas aeruginosa No. 12 and Escherichia coli P 5101, has been studied.
(§4) The infections were set up by intraperitoneal injection of a suspension of the bacterial culture corresponding to the germ studied. The products were administered orally at the time of injection, and 6 hours later. […] Aureus and for 7 days for the other germs.
(§5) Oxolinic acid was used as the reference substance.

[24] = test system: Pseudomonas aeruginosa No. 12; assay: Systemic infection in mice; type: in vivo; conditions: 168 h
Method: as §3, §4, §5

[25] = test system: Escherichia coli P 5101; assay: Systemic infection in mice; type: in vivo; conditions: P5101, po, 168 h
Method: as §3, §4, §5

[26] = test system: Strept. pyogenes A. 65; assay: Systemic infection in mice; type: in vivo; conditions: Streptococcus pyogenes, 168 h
Method: as §3, §4, §5

[27] = test system: Staph. aureus 50,774; assay: M.I.C. for germ used in experimental infection; type: cell-based; conditions: Staphylococcus aureus, 18 h
Method: (§6) After sterilisation at 120° C., the pH was 6.8.
(§7) The minimum inhibitory concentrations (M.I.C.) were determined by dilution of the test compounds in this mixture, the concentration ranging from 0.05 to 100 μg/cm^3 in a geometric progression with a factor of 2.
(§8) The inoculation of the dishes was carried out by means of a multiple inoculator with 10^-3 dilutions of 18 hour old broth cultures.
(§9) The dishes were placed in an oven at 37° C. and the readings were taken afer an incubation time of 18 hours. The M.I.C. was taken as the lowest concentration which inhibited a culture.

[28] = test system: Pseudomonas aeruginosa No. 12; assay: M.I.C. for germ used in experimental infection; type: cell-based
Method: as §6, §7, §8, §9

[29] = test system: Escherichia coli P 5101; assay: M.I.C. for germ used in experimental infection; type: cell-based; conditions: P5101, 18 h
Method: as §6, §7, §8, §9

[30] = test system: Strept. pyogenes A. 65; assay: M.I.C. for germ used in experimental infection; type: cell-based; conditions: Streptococcus pyogenes
Method: as §6, §7, §8, §9

[31] = test system: Salm. typhi 0901; assay: microbe, parasite or virus in culture; type: cell-based; conditions: Salmonella enterica, 18 h; Table III; Salm. typhi 0901
Method in brief: as §2

## C=CCN1CCN(c2cc3c(cc2F)c(=O)c(C(=O)O)cn3CC)CC1 [Example 23, 7-(4-Allylpiperazinyl)-1-ethyl-6-fluoro-4-oxo-1,4-dihydro-quinoline-3-carboxylic acid]
[1]; iv
  LD50: 177 mg/kg
[1]; po
  LD50: > 2000 mg/kg
[2]; Table III, Esch. coli 54.127 O.M.S., read-out: M.I.C.
  MIC: 0.1 to 0.8 µg/mL (≈ 0.278 to 2.23 µM)
[3]; Pseudomonas aeruginosa, 18 h, Table III, Pd. aeruginosa 72.345, read-out: M.I.C.
  MIC: 3.12 µg/mL (≈ 8.68 µM)
[4]; Table III, B. Subtilis, read-out: M.I.C.
  MIC: 0.1 to 0.2 µg/mL (≈ 0.278 to 0.556 µM)
[5]; Table III, read-out: M.I.C.
  MIC: 0.025 µg/mL (≈ 0.0696 µM)
[6]; Table III, Pr. mirabilis Nig, read-out: M.I.C.
  MIC: 0.4 to 0.8 µg/mL (≈ 1.11 to 2.23 µM)
[7]; 18 h, Table III, Ps. aeruginosa A.22, read-out: M.I.C.
  MIC: 1.6 to 3.12 µg/mL (≈ 4.45 to 8.68 µM)
[8]; Table III, Esch. coli 95 I.S.M., read-out: M.I.C.
  MIC: 0.1 to 0.4 µg/mL (≈ 0.278 to 1.11 µM)
[9]; Table III, Staph. 209 P, read-out: M.I.C.
  MIC: 0.1 to 0.2 µg/mL (≈ 0.278 to 0.556 µM)
[10]; Table III, S. enteritidis Danysz, read-out: M.I.C.
  MIC: 0.4 µg/mL (≈ 1.11 µM)
[11]; Table III, Arizona 6.211, read-out: M.I.C.
  MIC: 0.2 to 0.8 µg/mL (≈ 0.556 to 2.23 µM)
[12]
  MIC: 1.6 to 6.2 µg/mL (≈ 4.45 to 17.3 µM)
[13]
  MIC: 0.2 to 0.8 µg/mL (≈ 0.556 to 2.23 µM)
[14]; 18 h, Table III, Pr. morganii A. 236, read-out: M.I.C.
  MIC: 0.2 µg/mL (≈ 0.556 µM)
[15]; Table III, Pr. vulgaris 12-53, read-out: M.I.C.
  MIC: 0.2 to 0.4 µg/mL (≈ 0.556 to 1.11 µM)
[16]
  MIC: 0.1 to 0.2 µg/mL (≈ 0.278 to 0.556 µM)
[17]; Table III, Staph. 9.144, read-out: M.I.C.
  MIC: 0.2 µg/mL (≈ 0.556 µM)
[18]; Table III, Bord. bronchis. 4.617, read-out: M.I.C.
  MIC: 3.12 µg/mL (≈ 8.68 µM)
[19]; Salmonella enterica, 18 h, Table III, S. oranienburg 1066, read-out: M.I.C.
  MIC: 6.2 to 12.5 µg/mL (≈ 17.3 to 34.8 µM)
[20]; Table III, Providentia 0223, read-out: M.I.C.
  MIC: 1.6 to 6.2 µg/mL (≈ 4.45 to 17.3 µM)
[21]; Table III, Klebs. pneum. 10.031, read-out: M.I.C.
  MIC: 0.1 to 0.2 µg/mL (≈ 0.278 to 0.556 µM)
[22]; Table III, Strepto D.M. 19, read-out: M.I.C.
  MIC: 0.8 to 3.15 µg/mL (≈ 2.23 to 8.76 µM)
[23]; mice, p.o. at infection and 6 hours later, Staph. aureus 50,774, 14 days, read-out: ED50
  ED50: 5.2 mg/kg
[23]; mice, p.o. at infection and 6 hours later, Staph. aureus 50,774, 14 days, read-out: ED90
  ED90: 17 mg/kg
[24]; po, mice, p.o. at infection and 6 hours later, P. aeruginosa No. 12, 7 days, read-out: ED50
  ED50: 13.3 mg/kg
[24]; po, mice, p.o. at infection and 6 hours later, P. aeruginosa No. 12, 7 days, read-out: ED90
  ED90: 26.9 mg/kg
[25]; mice, p.o. at infection and 6 hours later, E. coli P 5101, 7 days, read-out: ED50
  ED50: 2.9 mg/kg
[25]; mice, p.o. at infection and 6 hours later, E. coli P 5101, 7 days, read-out: ED90
  ED90: 5.2 mg/kg
[26]; po, mice, p.o. at infection and 6 hours later, Strept. pyogenes A. 65, 7 days, read-out: ED50
  ED50: 64.7 mg/kg
[26]; po, mice, p.o. at infection and 6 hours later, Strept. pyogenes A. 65, 7 days, read-out: ED90
  ED90: 130 mg/kg
[27]; Table 4, Staph. aureus 50,774, read-out: M.I.C.
  MIC: 0.39 µg/mL (≈ 1.09 µM)
[28]; 18 h, Table 4, P. aeruginosa No. 12, read-out: M.I.C.
  MIC: 6.25 µg/mL (≈ 17.4 µM)
[29]; Table 4, E. coli P 5101, read-out: M.I.C.
  MIC: 0.39 µg/mL (≈ 1.09 µM)
[30]; 18 h, Table 4, Strept. pyogenes A. 65, read-out: M.I.C.
  MIC: 3.13 µg/mL (≈ 8.71 µM)
[31]
  MIC: 0.1 to 0.4 µg/mL (≈ 0.278 to 1.11 µM)

## CCn1cc(C(=O)O)c(=O)c2cc3c(cc21)OCO3 [Oxolinic acid, oxolinic acid, reference compound]
[1]; iv
  LD50: 177 mg/kg
[1]; po
  LD50: > 2000 mg/kg
[2]; 54.127O.M.S.
  MIC: 0.4 µg/mL (≈ 1.53 µM)
[3]; Pseudomonas aeruginosa, 72.345, 18 h
  MIC: 6.2 µg/mL (≈ 23.7 µM)
[4]
  MIC: 0.1 µg/mL (≈ 0.383 µM)
[5]
  MIC: 0.8 µg/mL (≈ 3.06 µM)
[6]
  MIC: 0.4 µg/mL (≈ 1.53 µM)
[7]; A.22, 18 h
  MIC: 12.5 µg/mL (≈ 47.9 µM)
[8]; 95I.S.M.
  MIC: 0.1 µg/mL (≈ 0.383 µM)
[9]
  MIC: 0.8 µg/mL (≈ 3.06 µM)
[10]; ENTERITIDIS
  MIC: 0.8 µg/mL (≈ 3.06 µM)
[11]
  MIC: 0.4 µg/mL (≈ 1.53 µM)
[13]
  MIC: 0.4 µg/mL (≈ 1.53 µM)
[14]; A.236, 18 h
  MIC: 0.1 µg/mL (≈ 0.383 µM)
[15]
  MIC: 0.05 µg/mL (≈ 0.191 µM)
[16]
  MIC: 0.2 µg/mL (≈ 0.766 µM)
[17]
  MIC: 0.8 µg/mL (≈ 3.06 µM)
[18]
  MIC: 3.1 µg/mL (≈ 11.9 µM)
[19]; Salmonella enterica, 1066, 18 h
  MIC: 25 µg/mL (≈ 95.7 µM)
[20]
  MIC: 25 µg/mL (≈ 95.7 µM)
[21]
  MIC: 0.1 µg/mL (≈ 0.383 µM)
[22]
  MIC: 25 µg/mL (≈ 95.7 µM)
[23]
  ED50: 53.2 mg/kg
  ED90: 111 mg/kg
[24]; NO.12, po
  ED50: 70.1 mg/kg
  ED90: 142 mg/kg
[25]
  ED50: 17 mg/kg
  ED90: 45.1 mg/kg
[26]; A.65, po
  ED50: > 100 mg/kg
  ED90: > 100 mg/kg
[27]
  MIC: 1.56 µg/mL (≈ 5.97 µM)
[28]; NO.12, 18 h
  MIC: 12.5 µg/mL (≈ 47.9 µM)
[29]
  MIC: 0.2 µg/mL (≈ 0.766 µM)
[30]; A.65, 18 h
  MIC: 100 µg/mL (≈ 383 µM)
[31]
  MIC: 0.4 µg/mL (≈ 1.53 µM)
